Laboratory results published in patent US20230043985A1, “ONCE DAILY CANCER TREATMENT REGIMEN WITH A PRMT5 INHIBITOR” (Pfizer Inc., priority 2019, published 2023).

Key:
[1] = Pre-clinical prediction of human in vivo plasma clearance from hepatocytes; format: in vitro ADME
Method: (§1) Briefly, in vivo plasma clearance (CL) in humans was predicted to be ˜3 and ˜0.6 mL/min/kg from human liver microsomes and hepatocytes, respectively. The conservative value of ˜3 mL/min/kg from human liver microsomes was used as the predicted CL. […] A half-life (t1/2) is predicted to be ˜6 h calculated by the equation: t1/2=0.693*Vss/CL.

[2] = biological target: T1, PRMT5 (Homo sapiens, UniProt O14744); assay: Blood pharmacodynamic biomarker plasma SDMA inhibition (LC-MS/MS) in patients; format: in vivo
T1 construct: endogenous in cells; host or cells: tissues of the dosed subjects (in vivo); SDMA measured in plasma by LC-MS/MS
T1 sequence (O14744 whole entry): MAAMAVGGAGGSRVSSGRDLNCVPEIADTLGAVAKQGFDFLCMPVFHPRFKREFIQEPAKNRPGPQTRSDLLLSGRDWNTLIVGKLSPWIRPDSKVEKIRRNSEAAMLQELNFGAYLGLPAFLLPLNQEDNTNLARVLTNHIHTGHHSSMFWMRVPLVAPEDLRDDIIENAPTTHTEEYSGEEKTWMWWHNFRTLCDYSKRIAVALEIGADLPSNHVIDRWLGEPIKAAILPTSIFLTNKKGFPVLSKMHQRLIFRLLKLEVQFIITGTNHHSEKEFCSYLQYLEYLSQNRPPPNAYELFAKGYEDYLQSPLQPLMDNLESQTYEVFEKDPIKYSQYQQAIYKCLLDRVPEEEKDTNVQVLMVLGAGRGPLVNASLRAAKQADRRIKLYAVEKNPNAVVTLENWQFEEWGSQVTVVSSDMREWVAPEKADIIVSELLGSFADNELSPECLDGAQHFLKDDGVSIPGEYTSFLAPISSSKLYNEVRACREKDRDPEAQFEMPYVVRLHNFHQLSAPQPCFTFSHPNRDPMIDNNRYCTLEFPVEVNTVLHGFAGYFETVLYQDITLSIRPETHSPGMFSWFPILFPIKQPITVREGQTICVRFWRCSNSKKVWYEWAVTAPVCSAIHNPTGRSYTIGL
T1 sequence (Q9BQA1 whole entry partner): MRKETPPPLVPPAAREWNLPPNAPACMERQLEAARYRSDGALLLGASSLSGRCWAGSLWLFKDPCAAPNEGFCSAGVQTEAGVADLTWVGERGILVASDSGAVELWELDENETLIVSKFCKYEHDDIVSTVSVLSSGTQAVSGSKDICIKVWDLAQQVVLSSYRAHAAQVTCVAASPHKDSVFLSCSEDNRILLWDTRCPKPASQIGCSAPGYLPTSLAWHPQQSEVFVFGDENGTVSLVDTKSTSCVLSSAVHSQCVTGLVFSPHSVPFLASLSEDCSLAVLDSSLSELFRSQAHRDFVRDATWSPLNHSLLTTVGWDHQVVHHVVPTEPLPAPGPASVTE
Method: The plasma SDMA (Symmetrical Dimethylarginine) level was used as a pharmacodynamic biomarker (PD) to monitor the inhibition effect of Compound 1. SDMA was chosen for the blood PD biomarker because PRMT5 catalyzes the formation of SDMA in a number of nuclear and cytoplasmic proteins, and PRMT5 inhibition would result in a decrease of SDMA. The quantitative determination of SDMA was performed by using a liquid chromatography mass spectrometry (LC-MS/MS) assay which is an exceedingly sensitive and specific analytical technique that can precisely determine the identities and concentration of compounds such as SDMA within a sample. The assay had been validated from 1-500 ng/ml in plasma. […] The plasma SDMA inhibition were around 60% for the first two cohorts (N=1 in each cohort), including 0.5 mg QD and 0.5 mg BID. The plasma SDMA inhibition was around 80% from cohort 3 to cohort 9, including 1 mg BID (N=2), 2 mg BID (N=3), 4 mg BID (N=3), 6 mg BID (N=4), 4 mg QD (N=5), 6 mg QD (N=6), and 8 mg QD (N=3).

[3] = Phase 1 clinical PK of Compound 1 in patients (plasma, LC-MS/MS), Study NCT03854227; format: in vivo, human
Method: Peak to trough ratio refers to the ratio of the maximum concentration (Cmax) to minimum concentration (Cmin) of Compound 1 observed. Relevant to the present invention is the peak to trough ration during the dosing interval at “steady state” (day 15). Blood samples for the characterization of PK profiles were collected at pre- and post-dose on Day 1 (single dose) and Day 15 (steady state), and were analyzed for Compound 1 using a validated liquid chromatography coupled with tandem mass spectrometry (LC-MS/MS) assay. The lower limit of quantitation of the assay was 0.250 ng/mL. The representative day 1 median PK profile of Compound 1 dosed at 2 mg BID is provided at FIG. 1. The representative steady state (day 15) median PK profile of Compound 1 dosed at 2 mg BID is provided at FIG. 2. Table 1 (below) depicts representative mean maximum (Cmax) and minimum (Cmin) daily concentrations of Compound 1 at “steady state” (day 15) dosed BID at 2 mg. A population pharmacokinetic (PK) model was generated based on the preliminary PK data from 6 patients received Compound 1 orally at doses up to 2 mg BID at steady state. It was observed that actual mean peak to trough ratio at steady state (here, 15 days of dosing) of Compound 1 in the NCT03854227 clinical trial was ˜2 for BID dosing, substantially lower than that previously predicted based on pre-clinical data (˜4 for BID). Furthermore, based on this population PK model, the steady state PK profiles following QD vs BID dosing (using a 16 mg total daily dose as an example) were compared using the individual PK parameters from each of these 6 patients. […] Compound 1 was provided to patients in three cohorts as tablets ((1) 1 mg tablets (for patient dosed with 4 mg QD); and 2) 1 mg and 5 mg tablets (for patients dosed with 6 mg QD and 8 mg QD)) supplied in separate labeled bottles for oral administration. Because patients were receiving 4 mg QD, 6 mg QD, and 8 mg QD, respectively, each of them were instructed to swallow whole (i.e., without crushing or chewing) 1) four 1 mg tablets (for the 4 mg QD cohort (N=3)); 2) one 5 mg tablets and one 1 mg tablet (for the 6 mg cohort (N=6)); and 3) one 5 mg tablet and three 1 mg tablets (for the 8 mg cohort (N=2)) at the same time each morning with at least 8 oz (240 mL) of water on an empty stomach. No food or liquids other than water were consumed for 2 hours before and 1 hour following each dose administration. Patients in these cohorts took Compound 1 orally QD as described above for four cycles (a cycle is 28 days). Weekly visits to the clinic were made by the patient to evaluate the anti-cancer activity and side effects of Compound 1. FIG. 5, FIG. 6, and FIG. 7 show the Day 15 steady state median concentration-time profiles for 4 mg QD, 6 mg QD, and 8 mg QD, respectively. […]

[4] = Pre-clinical prediction of human in vivo plasma clearance from human liver microsomes; format: in vitro ADME; conditions: used as the predicted CL
Method: as §1

[5] = Pre-clinical projection of human Vss, half-life and peak to trough ratio (unbound Vss scaling from rats and dogs; t1/2=0.693*Vss/CL); conditions: for predicted peak to trough ratio in humans: based on ~6-hour projected half-life
Method: as §1
Moreover, based on the ˜6-hour projected half-life for Compound 1 the likely peak to trough ratio in humans was predicted to be lower following twice daily (BID) dosing (˜4) compared to once daily (QD) dosing (˜8 or more). Lower peak to trough ratios are generally more desirable because they may help to minimize potential Cmax-related adverse effects (if any) while maintaining the therapeutic effects.
Half-life, for instance the half-life of Compound 1, refers to the time it takes for the plasma concentration of Compound 1 to decrease by 50% as calculated by the equation: 0.693*Vss/CL where Vss is the steady-state volume of distribution and CL is plasma clearance.

[6] = Tolerability of BID dosing scheme in Phase 1 clinical trial; format: in vivo, human; conditions: BID (twice daily) dosing scheme, patients
From the text: These calculations, and in particular the half-life projection, were incorporated into the design of a Phase I clinical trial of Compound 1 [Study NCT03854227; A Phase 1 Study to Evaluate the Safety, Pharmacokinetics, and Pharmacodynamics of Escalating Doses Of [Compound 1] (PRMT Inhibitor) in Participants with Advanced or Metastatic Non-Small Cell Lung Cancer, Head And Neck Squamous Cell Carcinoma, Esophageal Cancer, Endometrial Cancer, Cervical Cancer And Bladder Cancer; first posted 26 Feb. 2019] which included BID (twice daily) dosing of 0.5 mg, 1 mg, 2 mg, 4 mg, 8 mg, 16 mg, 30 mg and 60 mg Compound 1. BID (twice daily) dosing was implemented for all doses thought to potentially be therapeutic in order to limit (i.e., lessen) the projected peak to trough ratio of Compound 1 in view of the predicted ˜6-hour half-life of Compound 1.
In this regard, it is noted that the primary indications for Compound 1 are various cancer types which are often accompanied by patients' physical and emotional difficulties in executing self-care. Moreover, many cancer indications become more prevalent with advancing age and is often accompanied by decline in memory. […]
Part 1A (dose escalation) has approximately 9 cohorts and enrolls approximately 40 participants. […] Dose limiting toxicities (DLT) were assessed at the end of Cycle 1 (28 days) to inform dose escalation and determine the MTD. […]

Cc1ncnc2c1ccn2[C@@H]1C[C@H](Oc2cc(C(F)F)c(F)c3c2CNCC3)[C@@H](O)[C@H]1O [Compound 1, (1S,2S,3S,5R)-3-((6-(difluoromethyl)-5-fluoro-1,2,3,4-tetrahydroisoquinolin-8-yl)oxy)-5-(4-methyl-7H-pyrrolo[2,3-d]pyrimidin-7-yl)cyclopentane-1,2-diol]
predicted in vivo plasma clearance (CL) in humans [1]: ~0.6 mL/min/kg
plasma SDMA inhibition ([2]; cohort 3 to cohort 9: 1, 2, 4, 6 mg BID and 4, 6, 8 mg QD): around 80%
inhibition at 0.5 mg ([2]; human, first two cohorts: 0.5 mg QD and 0.5 mg BID (N=1 in each)): ~60%
SDMA reduction over time ([2]; plasma, different dose levels, patients (FIG. 8)): 60-80%
actual mean peak to trough ratio at steady state ([3]; BID dosing, doses up to 2 mg BID, 15 days of dosing, patients): ~2
peak-to-trough ratio at steady state (median) ([3]; QD oral dosing (4 mg, 6 mg, 8 mg QD cohorts), Day 15, patients): 3.1
Cmax at 15 day ([3]; human, plasma, 2 mg BID oral, steady state (day 15), patients, N=2, read-out: Cmax (mean maximum daily concentration)): 26.9 ng/mL
concentration at 15 day ([3]; human, plasma, 2 mg BID oral, steady state (day 15), patients, N=2, read-out: Cmin (mean minimum daily concentration)): 14.6 ng/mL
predicted in vivo plasma clearance (CL) in humans [4]: ~3 mL/min/kg
predicted half-life (t1/2) in humans ([5]; calculated t1/2=0.693*Vss/CL): ~6 h
predicted steady-state volume of distribution (Vss) in humans ([5]; mean unbound Vss scaling from rats and dogs, factoring in human plasma protein binding): 1.6 L/kg
predicted peak to trough ratio in humans ([5]; once daily (QD) dosing): ≥ 8
predicted peak to trough ratio in humans ([5]; twice daily (BID) dosing): ~4
tolerability [6]: well tolerated
